Assay results as given in paper PMC8344761 (Journal of Enzyme Inhibition and Medicinal Chemistry, 2021).

How the values were obtained:
A-Raf = target: T1, A-Raf (Homo sapiens, UniProt P10398); experiment: Raf kinase assay (Kinase HotSpot, Reaction Biology Corp.); format: biochemical; settings: fixed concentration 1 μM; mean of two independent experiments
T1 sequence (P10398 1-606): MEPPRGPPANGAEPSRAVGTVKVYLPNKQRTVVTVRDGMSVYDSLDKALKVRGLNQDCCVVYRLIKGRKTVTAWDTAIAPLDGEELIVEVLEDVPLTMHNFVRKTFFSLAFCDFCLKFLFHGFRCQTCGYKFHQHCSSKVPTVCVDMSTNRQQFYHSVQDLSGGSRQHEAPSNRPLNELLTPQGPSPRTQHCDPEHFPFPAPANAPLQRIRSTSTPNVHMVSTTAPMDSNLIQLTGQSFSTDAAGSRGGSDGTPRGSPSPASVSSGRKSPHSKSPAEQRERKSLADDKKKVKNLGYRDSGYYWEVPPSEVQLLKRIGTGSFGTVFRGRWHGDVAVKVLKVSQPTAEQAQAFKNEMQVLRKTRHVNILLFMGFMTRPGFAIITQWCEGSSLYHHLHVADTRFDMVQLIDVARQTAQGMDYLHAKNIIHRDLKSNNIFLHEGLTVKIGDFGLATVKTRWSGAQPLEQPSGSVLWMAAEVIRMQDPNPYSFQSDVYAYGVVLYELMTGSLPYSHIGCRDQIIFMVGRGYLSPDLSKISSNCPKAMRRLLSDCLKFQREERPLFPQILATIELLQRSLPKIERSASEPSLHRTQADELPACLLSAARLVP
Method: Compounds were delivered into each Raf reaction, followed ∼20 min later by addition of a mixture of ATP and [γ-^33P-ATP] (specific activity approx. 500 cpm/pmol, concentration as required) to a final concentration of 10 µM. […] Then, the reaction was spotted onto a P30 filtermat, and unbound phosphate was removed by washing three times for 5 min in 75 mM phosphoric acid and once in methanol prior to drying and scintillation counting. […] IC50 values and curve fits were obtained using Prism (GraphPad Software, La Jolla, CA).

B-Raf (V600E) = B-Raf (V600E) (Homo sapiens, UniProt P15056, V600E); experiment: as above; format: biochemical; settings: fixed concentration 1 μM; mean of two independent experiments; B-Raf (V599E)
B-Raf (V600E), sequence (P15056 whole entry V600E): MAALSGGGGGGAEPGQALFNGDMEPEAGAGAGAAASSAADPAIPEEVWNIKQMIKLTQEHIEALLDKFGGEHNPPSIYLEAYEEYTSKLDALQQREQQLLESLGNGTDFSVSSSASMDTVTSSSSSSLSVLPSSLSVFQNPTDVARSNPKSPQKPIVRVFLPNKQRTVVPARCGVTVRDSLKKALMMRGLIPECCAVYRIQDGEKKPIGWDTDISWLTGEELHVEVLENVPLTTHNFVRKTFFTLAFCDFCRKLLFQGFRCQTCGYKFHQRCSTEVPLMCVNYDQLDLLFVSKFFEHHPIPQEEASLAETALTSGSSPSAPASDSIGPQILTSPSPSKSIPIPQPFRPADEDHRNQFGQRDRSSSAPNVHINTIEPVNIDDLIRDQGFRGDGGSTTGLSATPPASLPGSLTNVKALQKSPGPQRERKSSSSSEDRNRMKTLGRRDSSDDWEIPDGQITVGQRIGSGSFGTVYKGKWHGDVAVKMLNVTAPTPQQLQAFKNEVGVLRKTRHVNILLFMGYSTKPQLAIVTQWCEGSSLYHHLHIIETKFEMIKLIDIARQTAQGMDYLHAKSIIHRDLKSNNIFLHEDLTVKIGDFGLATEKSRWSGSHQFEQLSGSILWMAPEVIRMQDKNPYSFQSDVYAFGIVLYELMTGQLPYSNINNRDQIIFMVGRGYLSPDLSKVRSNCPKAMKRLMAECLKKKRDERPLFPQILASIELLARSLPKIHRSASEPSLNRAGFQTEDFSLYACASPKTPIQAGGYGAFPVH
Method: (§1) Compounds were delivered into each Raf reaction, followed ∼20 min later by addition of a mixture of ATP and [γ-^33P-ATP] (specific activity approx. 500 cpm/pmol, concentration as required) to a final concentration of 10 µM. After incubation for 40 min at 25 °C, the reaction was stopped by the addition of a 3% phosphoric acid solution. Then, the reaction was spotted onto a P30 filtermat, and unbound phosphate was removed by washing three times for 5 min in 75 mM phosphoric acid and once in methanol prior to drying and scintillation counting. […] IC50 values and curve fits were obtained using Prism (GraphPad Software, La Jolla, CA).

C-Raf = C-Raf (Homo sapiens, UniProt P04049); experiment: as above; format: biochemical; settings: fixed concentration 1 μM; mean of two independent experiments; read-out: Inhibition (%) C-Raf
C-Raf, sequence (P04049 whole entry): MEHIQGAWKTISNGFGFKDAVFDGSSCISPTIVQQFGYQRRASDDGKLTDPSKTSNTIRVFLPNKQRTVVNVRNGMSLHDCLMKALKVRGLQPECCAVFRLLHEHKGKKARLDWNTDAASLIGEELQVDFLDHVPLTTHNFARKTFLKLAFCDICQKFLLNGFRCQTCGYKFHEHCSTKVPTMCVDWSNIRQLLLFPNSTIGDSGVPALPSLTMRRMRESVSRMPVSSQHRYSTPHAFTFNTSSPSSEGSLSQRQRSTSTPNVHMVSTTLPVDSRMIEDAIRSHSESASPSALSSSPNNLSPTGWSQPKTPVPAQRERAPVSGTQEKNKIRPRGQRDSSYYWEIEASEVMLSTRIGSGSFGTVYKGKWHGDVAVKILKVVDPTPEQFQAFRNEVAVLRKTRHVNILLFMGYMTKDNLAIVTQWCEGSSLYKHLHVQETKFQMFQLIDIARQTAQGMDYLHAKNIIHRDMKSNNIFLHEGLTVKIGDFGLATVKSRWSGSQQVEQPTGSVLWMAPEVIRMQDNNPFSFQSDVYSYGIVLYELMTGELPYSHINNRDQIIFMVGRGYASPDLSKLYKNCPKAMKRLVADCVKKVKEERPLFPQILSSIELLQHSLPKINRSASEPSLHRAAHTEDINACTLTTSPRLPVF
Method: as §1

B-Raf = B-Raf (Homo sapiens, UniProt P15056); experiment: as above; format: biochemical; settings: fixed concentration 1 μM; mean of two independent experiments
B-Raf, sequence (P15056 whole entry): as the sequence (P15056 whole entry V600E) above, with E600V counted along it
Method: as §1

Row | Compound | melting point [°C] | inhibition at 1 µM (A-Raf) [%] | inhibition at 1 µM (B-Raf (V600E)) [%] | inhibition at 1 µM (C-Raf) [%] | inhibition at 1 µM (B-Raf) [%]
1 | CNC(=O)c1cc(Oc2c(C)nc(N)c(C)c2C)ccn1 [Compound 3, 4-((6-Amino-2,4,5-trimethylpyridin-3-yl)oxy)-N-methylpicolinamide] | 193 | 17.6 | 9.4 | 0 | -15.4
2 | CNC(=O)c1cc(Oc2c(C)nc(NC(=O)Nc3ccc(Cl)cc3)c(C)c2C)ccn1 [Compound 5, 4-((6–(3-(4-Chlorophenyl)ureido)-2,4,5-trimethylpyridin-3-yl)oxy)-N-methylpicolinamide] | 248 | 70.2 | 69.4 | 83.1 | 63
3 | CNC(=O)c1cc(Oc2c(C)nc(NC(=O)Nc3ccccc3)c(C)c2C)ccn1 [Compound 7, N-Methyl-4-((2,4,5-trimethyl-6-(3-phenylureido)pyridin-3-yl)oxy)picolinamide] | 229 | 49.3 | 48 | 46.4 | 24.8
4 | CNC(=O)c1cc(Oc2c(C)nc(NC(=O)Nc3ccc(F)cc3)c(C)c2C)ccn1 [Compound 8, 4-((6-(3-(4-Fluorophenyl)ureido)-2,4,5-trimethylpyridin-3-yl)oxy)-N-methylpicolinamide] | 253 | 78.4 | 77.9 | 78.2 | 61.5
5 | CNC(=O)c1cc(Oc2c(C)nc(NC(=O)Nc3ccc(Br)cc3)c(C)c2C)ccn1 [Compound 9, 4-((6–(3-(4-Bromophenyl)ureido)-2,4,5-trimethylpyridin-3-yl)oxy)-N-methylpicolinamide] | 268 | 49.9 | 58.9 | 74.6 | 40.8
6 | CNC(=O)c1cc(Oc2c(C)nc(NC(=O)Nc3ccc([N+](=O)[O-])cc3)c(C)c2C)ccn1 [Compound 10, N-Methyl-4-((2,4,5-trimethyl-6-(3-(4-nitrophenyl)ureido)pyridin-3-yl)oxy)picolinamide] | 262 | 61.5 | 74.7 | 83.1 | 60.4
7 | CNC(=O)c1cc(Oc2c(C)nc(NC(=O)Nc3ccc(C(F)(F)F)cc3)c(C)c2C)ccn1 [Compound 11, N-Methyl-4-((2,4,5-trimethyl-6-(3-(4-(trifluoromethyl)phenyl)ureido)pyridin-3-yl)oxy)picolinamide] | 254 | 66.3 | 71.9 | 90.4 | 66.8
8 | CNC(=O)c1cc(Oc2c(C)nc(NC(=O)Nc3ccc(OC(F)(F)F)cc3)c(C)c2C)ccn1 [Compound 12, N-Methyl-4-((2,4,5-trimethyl-6-(3-(4-(trifluoromethoxy)phenyl)ureido)pyridin-3-yl)oxy)picolinamide] | 185 | 12.4 | 22.2 | 37.5 | 6.6
9 | CNC(=O)c1cc(Oc2c(C)nc(NC(=O)Nc3ccc(OC)cc3)c(C)c2C)ccn1 [Compound 13, 4-((6-(3-(4-Methoxyphenyl)ureido)-2,4,5-trimethylpyridin-3-yl)oxy)-N-methylpicolinamide] | 258 | 14.7 | 33.4 | 55.9 | 5.1
10 | CNC(=O)c1cc(Oc2c(C)nc(NC(=O)Nc3ccc(C)cc3)c(C)c2C)ccn1 [Compound 14, N-Methyl-4-((2,4,5-trimethyl-6-(3-(p-tolyl)ureido)pyridin-3-yl)oxy)picolinamide] | 247 | 51 | 62.2 | 73.6 | 44.5
11 | CNC(=O)c1cc(Oc2c(C)nc(NC(=O)Nc3ccc(C(C)C)cc3)c(C)c2C)ccn1 [Compound 15, 4-((6-(3-(4-Isopropylphenyl)ureido)-2,4,5-trimethylpyridin-3-yl)oxy)-N-methylpicolinamide] | 188 | 33.6 | 39 | 76.1 | 43.2

Results, then the compound that gave them:

Row | melting point [°C] | inhibition at 1 µM (A-Raf) [%] | inhibition at 1 µM (B-Raf (V600E)) [%] | inhibition at 1 µM (C-Raf) [%] | inhibition at 1 µM (B-Raf) [%] | Compound
12 | 206 | 8.6 | 7.1 | -6.4 | -7.1 | CNC(=O)c1cc(Oc2c(C)nc(NC(=O)Nc3c(C)cccc3C(C)(C)C)c(C)c2C)ccn1 [Compound 16, 4-((6-(3-(2-(Tert-Butyl)-6-methylphenyl)ureido)-2,4,5-trimethylpyridin-3-yl)oxy)-N-methylpicolinamide]
13 | 266 | 10.2 | 10.1 | 7.1 | -6.8 | CNC(=O)c1cc(Oc2c(C)nc(NC(=O)Nc3cccc4ccccc34)c(C)c2C)ccn1 [Compound 17, N-Methyl-4-((2,4,5-trimethyl-6-(3-(naphthalen-1-yl)ureido)pyridin-3-yl)oxy)picolinamide]
14 | 195 | 7.8 | 13.3 | – | -14.5 | CNC(=O)c1cc(Oc2c(C)nc(NC(=O)NCc3ccccc3)c(C)c2C)ccn1 [Compound 18, 4-((6-(3-Benzylureido)-2,4,5-trimethylpyridin-3-yl)oxy)-N-methylpicolinamide]
15 | 207 | -5.1 | – | 1.7 | -9.2 | CCCNC(=O)Nc1nc(C)c(Oc2ccnc(C(=O)NC)c2)c(C)c1C [Compound 19, N-Methyl-4-((2,4,5-trimethyl-6-(3-propylureido)pyridin-3-yl)oxy)picolinamide]
16 | 192 | 16.4 | 8.9 | -0.8 | -10 | CNC(=O)c1cc(Oc2c(C)nc(NC(=O)NC3CC3)c(C)c2C)ccn1 [Compound 20, 4-((6-(3-Cyclopropylureido)-2,4,5-trimethylpyridin-3-yl)oxy)-N-methylpicolinamide]
17 | 177 | 18.9 | 26.7 | 35.2 | 8.6 | CNC(=O)c1cc(Oc2c(C)nc(NC(=O)NC(=O)c3ccccc3)c(C)c2C)ccn1 [Compound 21, 4-((6-(3-Benzoylureido)-2,4,5-trimethylpyridin-3-yl)oxy)-N-methylpicolinamide]
18 | 187 | 9.4 | 2.6 | 5.7 | – | CNC(=O)c1cc(Oc2c(C)nc(NC(=O)NS(=O)(=O)c3ccc(C)cc3)c(C)c2C)ccn1 [Compound 22, N-Methyl-4-((2,4,5-trimethyl-6-(3-tosylureido)pyridin-3-yl)oxy)picolinamide]
19 | 205 | 11 | 11.6 | 6.7 | 0.3 | CNC(=O)c1cc(Oc2c(C)nc(NC(=O)Nc3ccc(N)cc3)c(C)c2C)ccn1 [Compound 23, 4-((6-(3-(4-Aminophenyl)ureido)-2,4,5-trimethylpyridin-3-yl)oxy)-N-methylpicolinamide]
20 | 206 | 11.9 | 4.4 | -8.3 | -19.3 | Cc1nc(NC(=O)Nc2ccc(Cl)c(C(F)(F)F)c2)c(C)c(C)c1OCc1ccccc1 [Compound 24, 1-(5-(Benzyloxy)-3,4,6-trimethylpyridin-2-yl)-3-(4-chloro-3-(trifluoromethyl)phenyl)urea]
21 | 242 | 7.9 | 8.7 | -7.7 | – | Cc1nc(NC(=O)Nc2ccc(Cl)c(C(F)(F)F)c2)c(C)c(C)c1O [Compound 25, 1-(4-Chloro-3-(trifluoromethyl)phenyl)-3-(5-hydroxy-3,4,6-trimethylpyridin-2-yl)urea]
